In this assay the target is human DGKα (Homo sapiens, UniProt P23743). Put plainly: biochemical.

The source of these data is patent publication US11999733B2, “Diacylglycerol kinase modulating compounds” (Gilead Sciences, Inc., priority 2021, dated 2024).
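Note: recombinant enzyme acting on 18:1 DAG micelles (with POPS and octylglucoside) plus 200 µM ATP, 1 h at 25 °C, ADP generated read out by ADP-Glo luminescence.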

Chain of human DGKα (P23743 whole entry): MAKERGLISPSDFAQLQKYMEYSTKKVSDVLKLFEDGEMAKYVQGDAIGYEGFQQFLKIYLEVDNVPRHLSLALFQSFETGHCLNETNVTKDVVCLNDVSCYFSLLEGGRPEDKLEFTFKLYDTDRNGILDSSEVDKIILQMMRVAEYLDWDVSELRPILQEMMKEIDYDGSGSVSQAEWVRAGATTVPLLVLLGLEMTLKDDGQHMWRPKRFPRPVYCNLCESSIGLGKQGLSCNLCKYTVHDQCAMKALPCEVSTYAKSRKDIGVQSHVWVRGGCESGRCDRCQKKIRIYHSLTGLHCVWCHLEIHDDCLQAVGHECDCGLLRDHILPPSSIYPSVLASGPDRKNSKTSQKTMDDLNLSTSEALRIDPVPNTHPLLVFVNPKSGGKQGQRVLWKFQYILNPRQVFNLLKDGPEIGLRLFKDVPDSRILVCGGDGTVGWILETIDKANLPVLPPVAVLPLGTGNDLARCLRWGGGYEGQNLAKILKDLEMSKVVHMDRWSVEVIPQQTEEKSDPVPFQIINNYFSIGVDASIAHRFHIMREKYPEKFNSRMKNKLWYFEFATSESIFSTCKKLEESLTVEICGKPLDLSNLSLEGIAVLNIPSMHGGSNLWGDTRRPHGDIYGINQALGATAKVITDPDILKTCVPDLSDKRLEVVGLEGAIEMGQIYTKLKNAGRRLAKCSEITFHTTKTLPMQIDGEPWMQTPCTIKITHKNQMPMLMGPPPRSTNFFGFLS

`CCC1(C#Cc2cccc3c2OCCCN3c2nc3nnn(C)c3c3cncc(F)c23)COC1` [Example 1, 9-((3-ethyloxetan-3-yl)ethynyl)-5-(6-fluoro-1-methyl-1H-[1,2,3]triazolo[4,5-c][2,6]naphthyridin-5-yl)-2,3,4,5-tetrahydrobenzo[b][1,4]oxazepine] gave an IC50 of 10.5 nM. Molecule `CCC1(C#Cc2cccc3c2COCCN3c2nc3nnn(C)c3c3cncc(F)c23)COC1` [Example 3, 6-((3-ethyloxetan-3-yl)ethynyl)-1-(6-fluoro-1-methyl-1H-[1,2,3]triazolo[4,5-c][2,6]naphthyridin-5-yl)-1,2,3,5-tetrahydrobenzo[e][1,4]oxazepine] came in with an IC50 of 2.73 nM.

`Cn1nnc2nc(N3CCOCc4c(C#CC5(C)COC5)cccc43)c3c(F)cncc3c21` [Example 4, 1-(6-fluoro-1-methyl-1H-[1,2,3]triazolo[4,5-c][2,6]naphthyridin-5-yl)-6-((3-methyloxetan-3-yl)ethynyl)-1,2,3,5-tetrahydrobenzo[e][1,4]oxazepine] registered an IC50 of 2.26 nM. Then `Cn1nnc2nc(N3CCCc4c(C#CC(C)(C)C#N)cccc43)c3c(F)cncc3c21` [Example 5, 4-(1-(6-fluoro-1-methyl-1H-[1,2,3]triazolo[4,5-c][2,6]naphthyridin-5-yl)-1,2,3,4-tetrahydroquinolin-5-yl)-2,2-dimethylbut-3-ynenitrile], with 20.8 nM.

Consider `Cn1nnc2nc(N3CCCOc4c(C#CC5(C)CC5)cccc43)c3c(F)cncc3c21` [Example 7, 5-(6-fluoro-1-methyl-1H-[1,2,3]triazolo[4,5-c][2,6]naphthyridin-5-yl)-9-((1-methylcyclopropyl)ethynyl)-2,3,4,5-tetrahydrobenzo[b][1,4]oxazepine], for which the IC50 stood at 11.5 nM. With `Cn1nnc2nc(N3CCCOc4c(C#CC(C)(C)C#N)cccc43)c3c(F)cncc3c21` [Example 8, 4-(5-(6-fluoro-1-methyl-1H-[1,2,3]triazolo[4,5-c][2,6]naphthyridin-5-yl)-2,3,4,5-tetrahydrobenzo[b][1,4]oxazepin-9-yl)-2,2-dimethylbut-3-ynenitrile], the IC50 came to 10.2 nM. The figure for `Cn1nnc2nc(N3CCCOc4c(C#CC(C)(C)O)cccc43)c3c(F)cncc3c21` [Example 10, 4-(5-(6-fluoro-1-methyl-1H-[1,2,3]triazolo[4,5-c][2,6]naphthyridin-5-yl)-2,3,4,5-tetrahydrobenzo[b][1,4]oxazepin-9-yl)-2-methylbut-3-yn-2-ol] is 13 nM; for `Cn1nnc2nc(N3CCOCc4c(C#CC5(C)CC5)cccc43)c3c(F)cncc3c21` [Example 11, 1-(6-fluoro-1-methyl-1H-[1,2,3]triazolo[4,5-c][2,6]naphthyridin-5-yl)-6-((1-methylcyclopropyl)ethynyl)-1,2,3,5-tetrahydrobenzo[e][1,4]oxazepine] it is 8.59 nM. The figure for `Cn1nnc2nc(N3CCCCc4c(C#CC(C)(C)O)cccc43)c3c(F)cncc3c21` [Example 15, 4-(1-(6-fluoro-1-methyl-1H-[1,2,3]triazolo[4,5-c][2,6]naphthyridin-5-yl)-2,3,4,5-tetrahydro-1H-benzo[b]azepin-6-yl)-2-methylbut-3-yn-2-ol] is 5.42 nM; for `Cn1nnc2nc(N(CC(F)F)c3cc(F)cc(C#CC(C)(C)C#N)c3)c3c(F)cncc3c21` [Example 16, 4-(3-((2,2-difluoroethyl)(6-fluoro-1-methyl-1H-[1,2,3]triazolo[4,5-c][2,6]naphthyridin-5-yl)amino)-5-fluorophenyl)-2,2-dimethylbut-3-ynenitrile] it is 42.2 nM; for `Cn1nnc2nc(N(CC(F)F)c3ccnc(C#CC4(C)CC4)c3)c3c(F)c(F)ccc3c21` [Example 17, N-(2,2-difluoroethyl)-6,7-difluoro-1-methyl-N-(2-((1-methylcyclopropyl)ethynyl)pyridin-4-yl)-1H-[1,2,3]triazolo[4,5-c]isoquinolin-5-amine] it is 61.8 nM. In the case of `Cn1nnc2nc(N(CC(F)F)c3ccnc(C#CC4(C)CC4)c3)c3c(F)cncc3c21` [Example 19, N-(2,2-difluoroethyl)-6-fluoro-1-methyl-N-(2-((1-methylcyclopropyl)ethynyl)pyridin-4-yl)-1H-[1,2,3]triazolo[4,5-c][2,6]naphthyridin-5-amine], the IC50 turned out to be 31.4 nM. As to `Cn1nnc2nc(N(CC(F)F)c3ccnc(C#CC(C)(C)C#N)c3)c3c(F)cncc3c21` [Example 20, 4-(4-((2,2-difluoroethyl)(6-fluoro-1-methyl-1H-[1,2,3]triazolo[4,5-c][2,6]naphthyridin-5-yl)amino)pyridin-2-yl)-2,2-dimethylbut-3-ynenitrile], half-maximal inhibition (IC50) was put at 109 nM. Consider `Cn1nnc2nc(N3CCCc4c(C#CC5(C)CC5)cncc43)c3cc(F)ccc3c21` [Example 22, 7-fluoro-1-methyl-5-(5-((1-methylcyclopropyl)ethynyl)-3,4-dihydro-1,7-naphthyridin-1(2H)-yl)-1H-[1,2,3]triazolo[4,5-c]isoquinoline], for which the IC50 was 124 nM.

`Cn1nnc2nc(N(CC(F)F)c3ccnc(C#CC4(C)CC4)c3)c3c(F)cccc3c21` [Example 24, N-(2,2-difluoroethyl)-6-fluoro-1-methyl-N-(2-((1-methylcyclopropyl)ethynyl)pyridin-4-yl)-1H-[1,2,3]triazolo[4,5-c]isoquinolin-5-amine]: the IC50 turned out to be 54.5 nM. The figure for `Cn1nnc2nc(N(CC(F)F)c3ccnc(C#CC4(C)CC4)c3)c3cc(F)ccc3c21` [Example 25, N-(2,2-difluoroethyl)-7-fluoro-1-methyl-N-(2-((1-methylcyclopropyl)ethynyl)pyridin-4-yl)-1H-[1,2,3]triazolo[4,5-c]isoquinolin-5-amine] is 39.2 nM. The figure for `Cn1nnc2nc(N(CC(F)F)c3ccnc(C#CC(C)(C)O)c3)c3cc(F)ccc3c21` [Example 27, 4-(4-((2,2-difluoroethyl)(7-fluoro-1-methyl-1H-[1,2,3]triazolo[4,5-c]isoquinolin-5-yl)amino)pyridin-2-yl)-2-methylbut-3-yn-2-ol] is 143 nM. Then `Cn1nnc2nc(N3CCCc4c(C#CC(C)(C)C#N)cncc43)c3c(F)cccc3c21` [Example 30, 4-(1-(6-fluoro-1-methyl-1H-[1,2,3]triazolo[4,5-c]isoquinolin-5-yl)-1,2,3,4-tetrahydro-1,7-naphthyridin-5-yl)-2,2-dimethylbut-3-ynenitrile], with 160 nM.

The molecule `Cn1nnc2nc(N3CCCc4c(C#CC(C)(C)O)cncc43)c3c(F)cncc3c21` [Example 32, 4-(1-(6-fluoro-1-methyl-1H-[1,2,3]triazolo[4,5-c][2,6]naphthyridin-5-yl)-1,2,3,4-tetrahydro-1,7-naphthyridin-5-yl)-2-methylbut-3-yn-2-ol] had an IC50 of 93 nM. Then `Cn1nnc2nc(N(CC(F)F)c3cc(F)cc(C#CC(C)(C)O)c3)c3cc(F)cnc3c21` [Example 34, 4-(3-((2,2-difluoroethyl)(7-fluoro-1-methyl-1H-[1,2,3]triazolo[4,5-h][1,6]naphthyridin-5-yl)amino)-5-fluorophenyl)-2-methylbut-3-yn-2-ol], with 26.1 nM. Regarding `Cn1nnc2nc(N3CCCc4c(C#CC(C)(C)C#N)cccc43)c3cc(F)cnc3c21` [Example 35, 4-(1-(7-fluoro-1-methyl-1H-[1,2,3]triazolo[4,5-h][1,6]naphthyridin-5-yl)-1,2,3,4-tetrahydroquinolin-5-yl)-2,2-dimethylbut-3-ynenitrile], the IC50 stood at 50.7 nM. For the molecule `Cn1nnc2nc(N(CC(F)F)c3cc(F)cc(C#CC4(C(F)(F)F)CC4)c3)c3c(F)cncc3c21` [Example 38, N-(2,2-difluoroethyl)-6-fluoro-N-(3-fluoro-5-((1-(trifluoromethyl)cyclopropyl)ethynyl)phenyl)-1-methyl-1H-[1,2,3]triazolo[4,5-c][2,6]naphthyridin-5-amine], the half-maximal inhibitory concentration (IC50) is 51.6 nM. Turning to `Cn1nnc2nc(N3CCCc4c(C#CC5(C(F)(F)F)CC5)cccc43)c3c(F)cncc3c21` [Example 40, 6-fluoro-1-methyl-5-(5-((1-(trifluoromethyl)cyclopropyl)ethynyl)-3,4-dihydroquinolin-1(2H)-yl)-1H-[1,2,3]triazolo[4,5-c][2,6]naphthyridine], the IC50 was determined as 41.9 nM. Then `Cn1nnc2nc(N(CC(F)F)c3cc(F)cc(C#CC(C)(C)O)c3)c3cc(F)ccc3c21` [Example 43, 4-(3-((2,2-difluoroethyl)(7-fluoro-1-methyl-1H-[1,2,3]triazolo[4,5-c]isoquinolin-5-yl)amino)-5-fluorophenyl)-2-methylbut-3-yn-2-ol], with 34.1 nM. The figure for `Cn1nnc2nc(N3CCCc4c(C#CC(C)(C)O)cccc43)c3c(F)cccc3c21` [Example 45, 4-(1-(6-fluoro-1-methyl-1H-[1,2,3]triazolo[4,5-c]isoquinolin-5-yl)-1,2,3,4-tetrahydroquinolin-5-yl)-2-methylbut-3-yn-2-ol] is 19.4 nM; for `Cn1nnc2nc(N(CC(F)F)c3cc(F)cc(C#CC4(C(F)(F)F)CC4)c3)c3c(F)cccc3c21` [Example 48, N-(2,2-difluoroethyl)-6-fluoro-N-(3-fluoro-5-((1-(trifluoromethyl)cyclopropyl)ethynyl)phenyl)-1-methyl-1H-[1,2,3]triazolo[4,5-c]isoquinolin-5-amine] it is 64.9 nM. The figure for `Cn1nnc2nc(N3CCCc4c(C#CC5(C(F)(F)F)CC5)cccc43)c3ccc(Cl)cc3c21` [Example 50, 8-chloro-1-methyl-5-(5-((1-(trifluoromethyl)cyclopropyl)ethynyl)-3,4-dihydroquinolin-1(2H)-yl)-1H-[1,2,3]triazolo[4,5-c]isoquinoline] is 23.2 nM; for `Cn1nnc2nc(N(CC(F)F)c3cc(F)cc(C#CC(C)(C)O)c3)c3ccc(Cl)cc3c21` [Example 51, 4-(3-((8-chloro-1-methyl-1H-[1,2,3]triazolo[4,5-c]isoquinolin-5-yl)(2,2-difluoroethyl)amino)-5-fluorophenyl)-2-methylbut-3-yn-2-ol] it is 22.5 nM.

A word on the IC50: it is the concentration that inhibits the measured activity by half. A low value points to higher potency.
